Source: PubChem BioAssay (NCI)
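Five compound concentrations were applied to cells in 96-well plates for 48 hours; endpoints were derived by simple linear interpolation of the resulting dose-response curve. Here, GI50 denotes the concentration required for 50% inhibition of growth. TGI is the concentration that stops growth completely.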

Columns and labels:
Experiment in all cases: NCI tumour cell line growth inhibition, 48 h
HOP-62 NSCLC = test system: HOP-62 NSCLC
MDA-MB-435 = test system: MDA-MB-435
NCI-H226 lung = test system: NCI-H226 lung
RPMI-8226 leukemia = test system: RPMI-8226 leukemia
SF-268 CNS = test system: SF-268 CNS
SK-MEL-28 melanoma = test system: SK-MEL-28 melanoma
SK-MEL-5 melanoma = test system: SK-MEL-5 melanoma
TK-10 renal = test system: TK-10 renal
RXF 393 renal = test system: RXF 393 renal
UACC-257 melanoma = test system: UACC-257 melanoma

SMILES	TGI (HOP-62 NSCLC)	TGI (MDA-MB-435)	TGI (NCI-H226 lung)	TGI (RPMI-8226 leukemia)	TGI (SF-268 CNS)	TGI (SK-MEL-28 melanoma)	TGI (SK-MEL-5 melanoma)	TGI (TK-10 renal)	TGI (RXF 393 renal)	TGI (UACC-257 melanoma)	GI50 (HOP-62 NSCLC)	GI50 (NCI-H226 lung)	GI50 (RPMI-8226 leukemia)	GI50 (RXF 393 renal)	GI50 (SF-268 CNS)	GI50 (SK-MEL-28 melanoma)	GI50 (SK-MEL-5 melanoma)	GI50 (TK-10 renal)	GI50 (UACC-257 melanoma)	GI50 (MDA-MB-435)
C=CCSC(C)=O	> 100 µM	> 100 µM	> 100 µM	> 100 µM	> 100 µM	> 100 µM	> 100 µM	> 100 µM												
N#CC(/C(CCCC(=O)Nc1cccc([N+](=O)[O-])c1)=N\NC(=O)c1c(O)ccc2ccccc12)c1nc2ccccc2s1 (stereo unspecified)	95.4 µM		72 µM		> 100 µM	> 100 µM	93.1 µM		> 100 µM	> 100 µM										
COc1ccc(C(=O)C(C(=O)C(=O)NCCCNC(=O)C(=O)C(C(=O)c2ccc(OC)cc2)c2ccc(OC)cc2)c2ccc(OC)cc2)cc1 (stereo unspecified)	> 100 µM		> 100 µM	> 100 µM	> 100 µM	> 100 µM		> 100 µM		> 100 µM										
CN(C)c1ccc2[nH]c3c(C(N)=O)cc(=O)c(=O)c=3oc2c1	> 100 µM		> 100 µM	> 100 µM	> 100 µM	> 100 µM	3.55 µM	> 100 µM	7.24 µM	6.18 µM	2.42 µM	4.74 µM	0.502 µM	1.89 µM	3.04 µM	4.2 µM	1.8 µM	3.73 µM	1.77 µM	
CCOCCOCCOCCOCCOCCOCCOCCOCCOCCO (tested in a mixture with another compound)	4.45 µM		12.5 µM		20.8 µM	> 32.5 µM	1.81 µM	12.2 µM	8.88 µM	2.73 µM	1.07 µM	1.22 µM		1.85 µM	1.61 µM	3.1 µM	0.586 µM	1.53 µM	0.739 µM	1.45 µM
CCc1c(C)c2cc(-n3c(-c4ccc(OC)cc4)csc3=N)c(O)c(C)c2oc1=O	8.53 µM	4.16 µM	9.73 µM		10.3 µM	4.42 µM		8.35 µM	6.7 µM	14.2 µM	1.67 µM	2.13 µM		1.74 µM	2.1 µM	1.55 µM		4.36 µM	3.15 µM	0.355 µM
O=C(N/C(=C\c1ccc(/C=C(\NC(=O)c2ccccc2)c2nc3c(O)nc(S)nc3[nH]2)cc1)c1nc2c(O)nc(S)nc2[nH]1)c1ccccc1	> 100 µM			> 100 µM	> 100 µM	> 100 µM	> 100 µM	> 100 µM	> 100 µM	> 100 µM										
COC1/C(=C\C(C)=O)c2ccccc2N1C(C)=O (stereo unspecified)	> 100 µM			> 100 µM		> 100 µM			> 100 µM	> 100 µM										
CCN(CC)C(=S)SS(C)(=O)=O	40.2 µM		31.3 µM				49.4 µM	32.2 µM	23.4 µM	52.3 µM										
O=C(CCc1ccccc1)CC1OC(=O)C(Cl)=C1Cl (stereo unspecified)	55.6 µM			> 100 µM	79.9 µM	32.9 µM	47 µM	57.7 µM	59.8 µM	41.1 µM										
N#Cc1ccc(C2SCc3nc4ccccc4n32)cc1 (stereo unspecified)	> 100 µM			> 100 µM	> 100 µM	> 100 µM	> 100 µM	> 100 µM	> 100 µM	> 100 µM										
Cc1ccc(S(=O)(=O)C2CC2(Cl)Cl)cc1 (stereo unspecified)			> 100 µM		> 100 µM	> 100 µM		> 100 µM	29.1 µM	44 µM										
Cc1[nH]c2cc([N+](=O)[O-])ccc2c1[N+](=O)[O-]	32.8 µM		71.8 µM	58.4 µM	> 100 µM	77.8 µM	27.6 µM	75.8 µM	54.1 µM	43.9 µM										
CC(=O)CC(=O)Nc1ccccc1C(F)(F)F	> 100 µM		> 100 µM	> 100 µM	> 100 µM	> 100 µM	> 100 µM	> 100 µM	> 100 µM											
CSc1nnc(C(C#N)C#N)nn1	> 100 µM		> 100 µM	> 100 µM	> 100 µM		> 100 µM	> 100 µM	> 100 µM	> 100 µM										
CCOC(=O)C1C(=O)CC(=O)C2CCCCC21 (stereo unspecified)	> 100 µM			> 100 µM	> 100 µM	> 100 µM	> 100 µM	> 100 µM	> 100 µM	> 100 µM										
CC(=O)C1C(=O)C(=O)N(CCN2C(=O)C(=O)C(C(C)=O)C2=O)C1=O (stereo unspecified)	> 100 µM		> 100 µM	> 100 µM	> 100 µM	> 100 µM	> 100 µM	> 100 µM	> 100 µM	> 100 µM										
